Source: ChEMBL document CHEMBL1135357, “Anti-MRSA activity of alkyl gallates” (2002)
In brackets after ≈: the same amount, converted by molar mass.

Legend:
Assay type in all cases: functional
Staphylococcus aureus [1] = experiment: Compound was tested for antibacterial activity against MRSA ATCC 33591, expressed as minimum bactericidal concentration (MBC)
Staphylococcus aureus [2] = experiment: Compound was tested for antibacterial activity against MRSA ATCC 33591, expressed as minimum inhibitory concentration (MIC)
Cutibacterium acnes = experiment: Compound was tested for antibacterial activity against Propionibacterium acnes
Bacillus subtilis = experiment: Compound was tested for antibacterial activity against Bacillus subtilis
Streptococcus mutans = experiment: Compound was tested for antibacterial activity against Streptococcus mutans
Staphylococcus aureus [3] = experiment: Compound was tested for antibacterial activity against Staphylococcus aureus (MRSA)
Bacillus thuringiensis = experiment: Compound was tested for antibacterial activity against Bacillus thuringiensis
Staphylococcus aureus [4] = experiment: Compound was tested for antibacterial activity against MRSA ATCC 33591, expressed as aminimum inhibitory concentration (MIC)
Micrococcus luteus = experiment: Compound was tested for antibacterial activity against Micrococcus luteus
[5] = tested on: Corynebacterium ammoniagenes; experiment: Compound was tested for antibacterial activity against Brevibacterium ammoniagenes
Staphylococcus aureus [6] = experiment: Compound was tested for antibacterial activity against Staphylococcus aureus

Row | SMILES | MIC (Staphylococcus aureus [2]) [µg/mL] | MBC (Staphylococcus aureus [1]) [µg/mL] | further results
1 | CCCCCCCCCCOC(=O)c1cc(O)c(O)c(O)c1 [DECYL GALLATE] | 12.5 (≈ 40.3 µM) | 25 (≈ 80.5 µM) | –
2 | CCCCCCCCCCCCOC(=O)c1cc(O)c(O)c(O)c1 [DODECYL GALLATE] | – | 25 (≈ 73.9 µM) | MBC (Cutibacterium acnes): 6.25 µg/mL (≈ 18.5 µM); MIC (Cutibacterium acnes): 6.25 µg/mL (≈ 18.5 µM); MBC (Bacillus subtilis): 25 µg/mL (≈ 73.9 µM); MIC (Bacillus subtilis): 25 µg/mL (≈ 73.9 µM); MBC (Streptococcus mutans): 100 µg/mL (≈ 295 µM); MIC (Streptococcus mutans): 100 µg/mL (≈ 295 µM); MBC (Staphylococcus aureus [3]): 25 µg/mL (≈ 73.9 µM); MIC (Staphylococcus aureus [3]): 12.5 µg/mL (≈ 36.9 µM); MIC (Bacillus thuringiensis): 50 µg/mL (≈ 148 µM); MIC (Staphylococcus aureus [4]): 12.5 µg/mL (≈ 36.9 µM); MBC (Micrococcus luteus): 25 µg/mL (≈ 73.9 µM); MIC (Micrococcus luteus): 12.5 µg/mL (≈ 36.9 µM); MBC [5]: 25 µg/mL (≈ 73.9 µM); MIC [5]: 25 µg/mL (≈ 73.9 µM); MBC (Staphylococcus aureus [6]): 25 µg/mL (≈ 73.9 µM); MIC (Staphylococcus aureus [6]): 12.5 µg/mL (≈ 36.9 µM)
3 | COc1cccc(OC)c1C(=O)N[C@@H]1C(=O)N2[C@@H]1SC(C)(C)[C@@H]2C(=O)O [METHICILLIN] | 800 (≈ 2100 µM) | > 800 | –
4 | CCCCCCCCCOC(=O)c1cc(O)c(O)c(O)c1 [NONYL GALLATE] | 25 (≈ 84.4 µM) | 50 (≈ 169 µM) | –
5 | CCCCCCCCOC(=O)c1cc(O)c(O)c(O)c1 [OCTYL_GALLATE] | 25 (≈ 88.5 µM) | 50 (≈ 177 µM) | –
6 | CCCOC(=O)c1cc(O)c(O)c(O)c1 [PROPYL GALLATE] | 1600 (≈ 7540 µM) | 3200 (≈ 15100 µM) | –

Further lines, with some results ahead:

Row | MIC (Staphylococcus aureus [2]) [µg/mL] | SMILES | MBC (Staphylococcus aureus [1]) [µg/mL] | further results
7 | 50 (≈ 171 µM) | CCCCCCCCCCCOC(=O)c1cccc(O)c1 | 50 (≈ 171 µM) | –
8 | 50 (≈ 162 µM) | CCCCCCCCCCCOC(=O)c1cc(O)cc(O)c1 | 50 (≈ 162 µM) | –
9 | 25 (≈ 93.2 µM) | CCCCCCCOC(=O)c1cc(O)c(O)c(O)c1 [HEPTYL GALLATE] | 100 (≈ 373 µM) | –
10 | 50 (≈ 197 µM) | CCCCCCOC(=O)c1cc(O)c(O)c(O)c1 [HEXYL GALLATE] | 200 (≈ 787 µM) | –
11 | 12.5 (≈ 38.5 µM) | CCCCCCCCCCCOC(=O)c1cc(O)c(O)c(O)c1 [UNDECYL GALLATE] | 25 (≈ 77.1 µM) | –
